According to paper PMC12399242 (Acta Pharmaceutica Sinica. B, 2025):
“Also recorded” adds a separate entry of the source. Like-named read-outs stand apart in the source and are kept apart here.

Tests used:
HIV-1 K103N = assay: Antiviral activity against HIV-1 mutant K103N in MT-4 cells; format: cell-based; conditions: Human immunodeficiency virus 1, MT4, read-out: EC50 K103N
CYP1A2 = molecular target: T1, CYP1A2 (Homo sapiens, UniProt P05177); assay: CYP enzyme inhibition assay, CYP1A2; format: in vitro ADME; conditions: human liver microsomes
T1 construct: An incubation system of human liver microsomes (20 μL, 1.5 mg/mL); from tissue; host or cells: human liver microsomes
Method: (§1) An incubation system of human liver microsomes (20 μL, 1.5 mg/mL), 20 μL probe substrates, and 50 μL test compound in Tris (0.1 mol/L) was pre-incubated at 37 °C for 10 min, and then initiated by adding NADPH (10 μL, 10 mmol/L). […] Finally, the sample was centrifugated to obtain the supernatant for LC‒MS/MS analysis.

[1] = Plasma protein binding assay (equilibrium dialysis); format: in vitro ADME; conditions: rat plasma, dialysis 37 °C, read-out: plasma protein binding rate (%PPB) (converted)
Method: The DMSO solution of A12 was diluted to 100 μmol/L with MeOH:H2O (1:1) and then added to the pre-loaded plasma to obtain plasma samples with a test concentration of 1 μmol/L. Subsequently, 100 μL of control dialysis buffer (phosphate buffer + 0.002% Tween-80) and 100 μL of A12 plasma sample were transferred to the receiver and the donor side of dialysis chambers, respectively, two copies of each sample. The dialysis system was incubated in a shaker (37 °C, 6 h). Upon completion, 20 μL of samples were removed from each of the buffer and plasma chambers. After adding aliquots control plasma, PBS (0.002% Tween-80) respectively, 250 μL methanol solution with internal standard was added into each sample. The solution was mixed and centrifuged (3800 rpm, 10 min) to obtain the supernatant for LC‒MS/MS analysis.

CYP2C9 = molecular target: T2, CYP2C9 (Homo sapiens, UniProt P11712); assay: CYP enzyme inhibition assay, CYP2C9; format: in vitro ADME; conditions: human liver microsomes
T2 construct: An incubation system of human liver microsomes (20 μL, 1.5 mg/mL); from tissue; host or cells: human liver microsomes
Method: as §1

CYP2D6 = molecular target: T3, CYP2D6 (Homo sapiens, UniProt P10635); assay: CYP enzyme inhibition assay, CYP2D6; format: in vitro ADME; conditions: human liver microsomes; read-out: IC50 CYP2D6
T3 construct: An incubation system of human liver microsomes (20 μL, 1.5 mg/mL); from tissue; host or cells: human liver microsomes
Method: (§2) An incubation system of human liver microsomes (20 μL, 1.5 mg/mL), 20 μL probe substrates, and 50 μL test compound in Tris (0.1 mol/L) was pre-incubated at 37 °C for 10 min, and then initiated by adding NADPH (10 μL, 10 mmol/L). The system was incubated for another 15 min and subsequently terminated by 100 μL MeCN containing internal standard (propranolol, nadolol). Finally, the sample was centrifugated to obtain the supernatant for LC‒MS/MS analysis.

HIV-1 Y181C = assay: Antiviral activity against HIV-1 mutant Y181C in MT-4 cells; format: cell-based
HIV-1 E138K = assay: Antiviral activity against HIV-1 mutant E138K in MT-4 cells; format: cell-based; conditions: Human immunodeficiency virus 1, MT4, read-out: EC50 E138K
HIV-1 L100I = assay: Antiviral activity against HIV-1 mutant L100I in MT-4 cells; format: cell-based; conditions: Human immunodeficiency virus 1, MT4, read-out: EC50 L100I
ICR mice = assay: Acute toxicity assay in ICR mice; format: in vivo
Method: A12 was suspended in PEG400/normal saline (80/20, v/v) to achieve a concentration of 100 mg/ml. Sixteen ICR mice (eight male/eight female, 18–22 g) were assigned into 4 groups randomly, and each group contained 4 male mice or 4 female mice (n = 4). […] Over the next two weeks, the mortality, body weight, and abnormal behaviors of these mice were monitored daily. All mice were dissected after blood collection on Day 14, and several vital organs were removed and then assessed for pathological damage by HE staining. The collected blood was submitted for blood biochemistry testing.

HIV-1 F227L + V106A = assay: microbe, parasite or virus in culture; format: cell-based; conditions: Human immunodeficiency virus 1, MT4, read-out: EC50 F227L + V106A
HIV-1 mutant strains = assay: Antiviral activity against panel of HIV-1 mutant strains (summary ranges); format: cell-based
WT HIV-1 RT = WT HIV-1 RT (Human immunodeficiency virus type 1 group M subtype B, UniProt P03366); assay: Inhibition of WT HIV-1 RT polymerase activity
Method: The anti-HIV-1 activity of A1–A24 and B1–B22 at the cellular or enzyme level were evaluated following our previously reported method[15].

[2] = Human liver microsomal stability assay; format: in vitro ADME
Method: A mixed system of human liver microsomes (0.5 mg/mL), MgCl2 (3 mmol/L), tested compound (1.0 μmol/L), and NADPH (1.0 mmol/L) in PBS (0.1 mol/L) was incubated at 37 °C. After 0, 5, 15, 30, 45, and 60 min, aliquots were sampled respectively and then terminated by adding methanol containing internal standard. After centrifugation using a Thermo Scientific Fresco 17 microcentrifuge (4 °C, 3800 rpm, 15 min), the supernatant was removed for LC‒MS/MS analysis.

CYP3A4-T = molecular target: T4, CYP3A4-T (Homo sapiens, UniProt P08684); assay: CYP enzyme inhibition assay, CYP3A4-T; format: in vitro ADME; conditions: human liver microsomes
T4 construct: An incubation system of human liver microsomes (20 μL, 1.5 mg/mL); from tissue; host or cells: human liver microsomes
Method: as §2

[3] = test system: HIV-1 K103N + Y181C (RES056); assay: Antiviral activity against HIV-1 double mutant K103N + Y181C (RES056) in MT-4 cells; format: cell-based; conditions: Human immunodeficiency virus 1, MT4, read-out: EC50 K103N + Y181C
HIV-1 Y188L = assay: Antiviral activity against HIV-1 mutant Y188L in MT-4 cells; format: cell-based; conditions: Human immunodeficiency virus 1, MT4, read-out: EC50 Y188L
CYP3A4-M = CYP3A4-M (Homo sapiens, UniProt P08684); assay: CYP enzyme inhibition assay, CYP3A4-M; format: in vitro ADME; design: An incubation system of human liver microsomes (20 μL, 1.5 mg/mL); from tissue; host or cells: human liver microsomes; conditions: human liver microsomes
Method: as §1

hERG channel = molecular target: T5, hERG channel (Homo sapiens, UniProt Q12809); assay: hERG inhibition assay (QPatch, CHO-hERG cells); format: cell-based; conditions: automated QPatch, n = 3
T5 construct: expressed in transfected cells; host or cells: CHO-hERG cells
Method: CHO-hERG cells were cultured under the condition of 37 °C and 5% CO2. The culture medium was removed when the cell density grew to 60%–80%. Then, the cells were washed (PBS, 7 mL) and digested. After completion, culture medium (7 mL) was added for neutralization and then centrifuged to obtain the cells, which were subsequently resuspended into 5 mL of culture medium for automated Qpatch assays. The electrophysiology process was recorded using the QPatch instrument. The cells were clamped at an equilibrium potential of −80 mV. Voltage stimulation was conducted every 15 s, which concludes a 5 s, +40 mV depolarizing pulse and a 5 s, −50 mV repolarizing pulse. After 2 min of recording, extracellular fluid was given and recorded for 5 min. […] Each concentration was evaluated on 3 cells (n = 3).

[4] = test system: six CYP isoenzymes (not named; range over all six); assay: CYP inhibition, six isoenzymes (summary range); format: in vitro ADME; conditions: human, human liver microsomes
Method: as §2

T3 sequence (P10635 whole entry): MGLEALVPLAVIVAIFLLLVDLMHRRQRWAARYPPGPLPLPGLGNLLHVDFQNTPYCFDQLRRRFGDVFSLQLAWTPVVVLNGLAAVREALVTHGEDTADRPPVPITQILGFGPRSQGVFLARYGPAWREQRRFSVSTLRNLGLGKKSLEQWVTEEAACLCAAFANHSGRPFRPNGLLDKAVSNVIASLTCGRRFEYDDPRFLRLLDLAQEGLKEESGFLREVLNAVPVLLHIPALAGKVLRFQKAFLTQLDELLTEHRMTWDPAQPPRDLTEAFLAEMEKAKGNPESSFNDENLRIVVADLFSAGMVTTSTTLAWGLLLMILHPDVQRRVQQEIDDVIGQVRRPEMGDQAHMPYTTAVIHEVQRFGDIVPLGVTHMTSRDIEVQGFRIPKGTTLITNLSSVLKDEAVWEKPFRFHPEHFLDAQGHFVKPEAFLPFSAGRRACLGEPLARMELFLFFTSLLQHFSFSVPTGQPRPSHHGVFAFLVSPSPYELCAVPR
T4 sequence (P08684 whole entry): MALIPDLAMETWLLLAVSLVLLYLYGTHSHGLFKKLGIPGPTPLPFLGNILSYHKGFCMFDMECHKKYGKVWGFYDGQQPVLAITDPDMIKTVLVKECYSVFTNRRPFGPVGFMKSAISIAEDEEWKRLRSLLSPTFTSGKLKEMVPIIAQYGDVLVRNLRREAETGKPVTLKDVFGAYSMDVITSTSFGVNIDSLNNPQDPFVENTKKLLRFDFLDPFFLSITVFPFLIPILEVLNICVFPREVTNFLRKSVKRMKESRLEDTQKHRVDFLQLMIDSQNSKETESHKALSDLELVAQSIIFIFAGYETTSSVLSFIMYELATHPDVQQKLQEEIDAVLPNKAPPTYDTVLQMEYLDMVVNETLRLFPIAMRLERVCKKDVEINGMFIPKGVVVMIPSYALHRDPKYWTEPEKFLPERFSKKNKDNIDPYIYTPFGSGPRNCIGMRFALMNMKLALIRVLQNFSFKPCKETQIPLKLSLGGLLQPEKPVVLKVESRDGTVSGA
Chain of CYP3A4-M (P08684 whole entry): as above
T1 sequence (P05177 whole entry): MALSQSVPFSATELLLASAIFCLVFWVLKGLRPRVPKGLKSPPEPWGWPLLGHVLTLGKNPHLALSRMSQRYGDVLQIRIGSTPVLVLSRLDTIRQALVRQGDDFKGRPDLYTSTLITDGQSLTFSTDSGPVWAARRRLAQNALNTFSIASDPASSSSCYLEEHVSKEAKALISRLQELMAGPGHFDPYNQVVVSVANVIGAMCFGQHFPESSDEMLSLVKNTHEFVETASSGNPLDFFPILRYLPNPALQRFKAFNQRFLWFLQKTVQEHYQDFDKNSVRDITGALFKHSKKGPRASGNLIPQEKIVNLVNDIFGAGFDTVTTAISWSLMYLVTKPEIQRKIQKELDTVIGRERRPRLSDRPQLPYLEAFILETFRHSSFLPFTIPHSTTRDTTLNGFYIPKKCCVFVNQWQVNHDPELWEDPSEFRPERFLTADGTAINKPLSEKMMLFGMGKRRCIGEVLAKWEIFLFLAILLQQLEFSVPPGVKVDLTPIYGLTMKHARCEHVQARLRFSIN
T2 sequence (P11712 whole entry): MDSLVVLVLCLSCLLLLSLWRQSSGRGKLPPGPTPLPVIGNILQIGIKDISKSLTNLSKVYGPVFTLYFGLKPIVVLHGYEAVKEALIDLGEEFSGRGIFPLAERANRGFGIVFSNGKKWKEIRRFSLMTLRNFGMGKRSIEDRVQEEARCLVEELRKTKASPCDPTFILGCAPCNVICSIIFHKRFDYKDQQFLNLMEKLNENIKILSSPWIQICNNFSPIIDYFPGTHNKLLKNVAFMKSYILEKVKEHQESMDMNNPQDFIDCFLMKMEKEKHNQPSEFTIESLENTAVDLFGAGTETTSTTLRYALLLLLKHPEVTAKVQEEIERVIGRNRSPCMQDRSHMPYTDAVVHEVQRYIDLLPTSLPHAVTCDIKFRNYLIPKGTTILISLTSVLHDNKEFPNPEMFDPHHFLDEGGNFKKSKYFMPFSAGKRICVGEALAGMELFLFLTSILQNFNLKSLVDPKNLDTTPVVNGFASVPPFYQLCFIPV
T5 sequence (Q12809 whole entry): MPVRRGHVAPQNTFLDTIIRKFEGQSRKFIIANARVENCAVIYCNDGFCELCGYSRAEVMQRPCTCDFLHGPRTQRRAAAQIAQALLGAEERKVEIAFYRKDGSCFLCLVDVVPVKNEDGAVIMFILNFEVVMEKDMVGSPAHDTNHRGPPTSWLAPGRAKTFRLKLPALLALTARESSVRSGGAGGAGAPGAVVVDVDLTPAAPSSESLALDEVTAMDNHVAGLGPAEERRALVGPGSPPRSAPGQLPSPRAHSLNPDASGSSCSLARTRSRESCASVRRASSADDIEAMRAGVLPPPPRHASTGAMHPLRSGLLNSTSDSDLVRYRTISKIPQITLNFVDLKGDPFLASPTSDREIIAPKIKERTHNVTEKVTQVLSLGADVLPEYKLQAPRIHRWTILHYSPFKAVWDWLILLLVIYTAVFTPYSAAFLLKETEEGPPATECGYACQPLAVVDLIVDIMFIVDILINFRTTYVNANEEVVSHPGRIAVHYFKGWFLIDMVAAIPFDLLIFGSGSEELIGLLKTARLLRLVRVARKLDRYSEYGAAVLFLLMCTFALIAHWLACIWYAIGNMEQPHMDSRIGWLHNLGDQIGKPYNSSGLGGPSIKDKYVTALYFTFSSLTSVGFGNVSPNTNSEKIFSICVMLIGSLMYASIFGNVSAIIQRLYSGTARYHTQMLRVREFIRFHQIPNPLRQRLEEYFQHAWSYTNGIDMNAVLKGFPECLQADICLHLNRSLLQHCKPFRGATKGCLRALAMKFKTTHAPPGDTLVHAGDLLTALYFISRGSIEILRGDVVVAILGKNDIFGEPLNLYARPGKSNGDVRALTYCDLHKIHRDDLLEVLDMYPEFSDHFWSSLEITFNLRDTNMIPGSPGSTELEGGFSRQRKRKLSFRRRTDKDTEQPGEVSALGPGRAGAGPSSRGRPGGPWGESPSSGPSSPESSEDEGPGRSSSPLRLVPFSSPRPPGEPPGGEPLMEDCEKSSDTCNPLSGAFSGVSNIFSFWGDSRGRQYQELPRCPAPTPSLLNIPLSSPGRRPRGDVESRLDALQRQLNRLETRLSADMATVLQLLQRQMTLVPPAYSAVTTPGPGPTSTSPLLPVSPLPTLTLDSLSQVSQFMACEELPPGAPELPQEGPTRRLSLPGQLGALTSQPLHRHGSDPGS

## Cc1cc(-c2ccc(C#N)cc2)cc(C)c1Nc1nc(Nc2ccc(C#N)cc2)ncc1F [A12, 4′-((2-((4-Cyanophenyl)amino)-5-fluoropyrimidin-4-yl)amino)-3′,5′-dimethyl-[1,1′-biphenyl]-4-carbonitrile]
HIV-1 K103N
  EC50: 1.7 ± 0.5 nM
CYP1A2
  IC50: > 25 µM
[1]
  fraction unbound at 6 h, 1 μmol/L: 0.005
CYP2C9
  IC50: 6.99 µM
CYP2D6
  IC50: 14.5 µM
HIV-1 Y181C; Human immunodeficiency virus 1, MT4, read-out: EC50 Y181C
  EC50: 7.1 ± 1.2 nM
HIV-1 Y181C; ratio of EC50 values
  fold higher efficacy against Y181C than toward RES056: 6.2 fold
HIV-1 E138K
  EC50: 6 ± 0.5 nM
HIV-1 L100I
  EC50: 3 ± 0.5 nM
ICR mice; 2 g/kg i.g., Day 14
  HE staining of vital organs (brain, heart, liver, spleen, lung, kidney): does not show any discernible pathological alteration in vital organs; also recorded: no notable pathological alterations were detected in the vital organs
ICR mice; 2 g/kg i.g., fourteen days after administration, vs control
  blood biochemical parameters (ALT, AST, CREA, UREA, CKMB): no significant differences in blood biochemical parameters
ICR mice; male and female, single dose 2 g/kg i.g., 14 days
  mortality: No instances of mortality were recorded
ICR mice; single dose 2 g/kg
  acute toxicity, overall: excellent tolerance at doses reaching 2 g/kg, without any manifestation of immediate toxicity
ICR mice; single dose 2 g/kg i.g., 14 days
  abnormal behavior: no noteworthy deviations in behavior were detected
ICR mice; single dose 2 g/kg i.g., vs control group
  body weight growth: growth patterns similar to that shown by the control group
HIV-1 F227L + V106A
  EC50: 157 ± 64 nM
HIV-1 mutant strains; Human immunodeficiency virus 1, read-out: EC50 mutant strains L100I, K103N, Y181C, and E138K
  EC50: 1.7 to 7.1 nM
HIV-1 mutant strains; Human immunodeficiency virus 1, read-out: EC50 seven mutant strains
  EC50: 1.7 to 157 nM
WT HIV-1 RT
  IC50: 41 ± 6.9 nM
[2]; human liver microsomes 0.5 mg/mL, 1.0 μmol/L compound
  half-life at 1 μmol/L: 24.3 min
[2]; human liver microsomes, scaled to liver
  CLint scaled at 1 μmol/L: 51.3 mL/min/kg
[2]; human, microsomes
  microsomal CLint at 1 μmol/L: 57 µL/min/mg
CYP3A4-T
  IC50: > 25 µM
[3]
  EC50: 44 ± 18 nM
HIV-1 Y188L
  EC50: 60 ± 9.2 nM
CYP3A4-M
  IC50: > 25 µM
hERG channel
  IC50: > 40 µM
[4]
  IC50 at 15 min: 6.99 to 25 µM
